Data taken from ChEMBL document CHEMBL5614422, “Design, synthesis and biological evaluation of N-salicyloyl tryptamine derivatives as multifunctional neuroprotectants for the treatment of ischemic stroke” (Eur J Med Chem, 2024).
≈ marks a conversion by molar mass, not a printed value.

Tests used:
[1] = Half life in 12 hrs fasted male Sprague-Dawley rat at 50 mg/kg measured upto 48 hrs by LC-MS/MS analysis; format: ADME, organism-based; conditions: in vivo
[2] = Acute toxicity in Kunming mouse assessed as effect on heart at 500 mg/kg, ip measured after 14 days by H and E staining based analysis; format: organism-based; conditions: in vivo, 336 h, time 14 day
[3] = Acute toxicity in Kunming mouse assessed as effect on body weight at 500 mg/kg, ip measured after 14 days; format: organism-based; conditions: in vivo, 336 h, time 14 day
[4] = Aqueous solubility of the compound incubated for 72 hrs under shaking condition by HPLC analysis; format: physicochemical
[5] = Acute toxicity in Kunming mouse assessed as effect on kidney at 500 mg/kg, ip measured after 14 days by H and E staining based analysis; format: organism-based; conditions: in vivo, 336 h, time 14 day
[6] = Acute toxicity in Kunming mouse assessed as effect on lung at 500 mg/kg, ip measured after 14 days by H and E staining based analysis; format: organism-based; conditions: in vivo, 336 h, time 14 day
[7] = Acute toxicity in Kunming mouse assessed as effect on liver at 500 mg/kg, ip measured 14 days by H and E staining based analysis; format: organism-based; conditions: in vivo, 336 h, time 14 day
[8] = Acute toxicity in Kunming mouse assessed as effect on spleen at 500 mg/kg, ip measured after 14 days by H and E staining based analysis; format: organism-based; conditions: in vivo, 336 h, time 14 day
HT-22 [9] = assay: Anti-apoptotic activity in OGD/R mouse HT-22 cells assessed as late apoptotic cells at 1 uM by annexin V-FITC and PI staining based flow cytometry analysis (reference value: 7.26%); format: functional
HT-22 [10] = assay: Anti-apoptotic activity in OGD/R mouse HT-22 cells assessed as late apoptotic cells at 5 uM by annexin V-FITC and PI staining based flow cytometry analysis (reference value: 7.26%); format: functional
[11] = Drug concentration in male Sprague-Dawley rat Cerebrospinal fluid at 60 mg/kg, ip measured after 4 hrs by LC-MS analysis; format: ADME, organism-based; conditions: read-out: Ct
HT-22 [12] = assay: Antioxidant activity against OGD/R induced damage in mouse HT-22 cells assessed as decrease in proportion of mitochondrial depolarized cells at 5 uM by JC-1 fluorescence based flow cytometry analysis (reference value: 91.7%); format: functional; set-up: scale not given: the % may be the effect or the level left
HT-22 [13] = assay: Anti-apoptotic activity in OGD/R mouse HT-22 cells assessed as viable cells at 10 uM by annexin V-FITC and PI staining based flow cytometry analysis (reference value: 83.09%); format: functional; conditions: read-out: Activity
HT-22 [14] = assay: Anti-apoptotic activity in OGD/R mouse HT-22 cells assessed as early apoptotic cells at 10 uM by annexin V-FITC and PI staining based flow cytometry analysis (reference value: 9.51%); format: functional
HT-22 [15] = assay: Anti-apoptotic activity in OGD/R mouse HT-22 cells assessed as early apoptotic cells at 5 uM by annexin V-FITC and PI staining based flow cytometry analysis (reference value: 9.51%); format: functional
HT-22 [16] = assay: Antioxidant activity against OGD/R induced damage in mouse HT-22 cells assessed as decrease in proportion of mitochondrial depolarized cells at 10 uM by JC-1 fluorescence based flow cytometry analysis (reference value: 91.7%); format: functional; set-up: scale not given: the % may be the effect or the level left
HT-22 [17] = assay: Anti-apoptotic activity in OGD/R mouse HT-22 cells assessed as necrotic cells at 1 uM by annexin V-FITC and PI staining based flow cytometry analysis (reference value: 0.14%); format: functional
[18] = Drug concentration in male Sprague-Dawley rat Cerebrospinal fluid at 60 mg/kg, ip measured after 2 hrs by LC-MS analysis; format: ADME, organism-based; conditions: read-out: Ct
[19] = Drug concentration in male Sprague-Dawley rat plasma at 60 mg/kg, ip measured after 0.5 hrs by LC-MS analysis; format: ADME, organism-based
HT-22 [20] = assay: Anti-apoptotic activity in OGD/R mouse HT-22 cells assessed as viable cells at 5 uM by annexin V-FITC and PI staining based flow cytometry analysis (reference value: 83.09%); format: functional; conditions: read-out: Activity
HT-22 [21] = assay: Anti-apoptotic activity in OGD/R mouse HT-22 cells assessed as early apoptotic cells at 1 uM by annexin V-FITC and PI staining based flow cytometry analysis (reference value: 9.51%); format: functional
[22] = Drug concentration in male Sprague-Dawley rat Cerebrospinal fluid at 60 mg/kg, ip measured after 0.5 hrs by LC-MS analysis; format: ADME, organism-based; conditions: read-out: Ct
HT-22 [23] = assay: Anti-apoptotic activity in OGD/R mouse HT-22 cells assessed as viable cells at 1 uM by annexin V-FITC and PI staining based flow cytometry analysis (reference value: 83.09%); format: functional; conditions: read-out: Activity
[24] = Drug concentration in male Sprague-Dawley rat plasma at 60 mg/kg, ip measured after 2 hrs by LC-MS analysis; format: ADME, organism-based
[25] = Cytotoxicity against mouse HT-22 cells assessed as cell viability incubated for 24 hrs by CCK-8 method; format: toxicity, cell-based
HT-22 [26] = assay: Antioxidant activity against OGD/R induced damage in mouse HT-22 cells assessed as decrease in proportion of mitochondrial depolarized cells at 1 uM by JC-1 fluorescence based flow cytometry analysis (reference value: 91.7%); format: functional; set-up: scale not given: the % may be the effect or the level left
HT-22 [27] = assay: Anti-apoptotic activity in OGD/R mouse HT-22 cells assessed as necrotic cells at 5 uM by annexin V-FITC and PI staining based flow cytometry analysis (reference value: 0.14%); format: functional
HT-22 [28] = assay: Anti-apoptotic activity in OGD/R mouse HT-22 cells assessed as necrotic cells at 10 uM by annexin V-FITC and PI staining based flow cytometry analysis (reference value: 0.14%); format: functional
HT-22 [29] = assay: Neuroprotective activity against OGD/R induced cell damage in mouse HT-22 cells assessed as cell viability at 10 uM measured after 24 hrs by MTT assay (reference value: 69.01 +/-2.90%); format: functional; conditions: read-out: Activity
HT-22 [30] = assay: Anti-apoptotic activity in OGD/R mouse HT-22 cells assessed as late apoptotic cells at 10 uM by annexin V-FITC and PI staining based flow cytometry analysis (reference value: 7.26%); format: functional
[31] = Cytotoxicity against mouse BV-2 cells assessed as cell viability incubated for 24 hrs by CCK-8 method; format: toxicity, cell-based
[32] = Drug concentration in male Sprague-Dawley rat plasma at 60 mg/kg, ip measured after 4 hrs by LC-MS analysis; format: ADME, organism-based
[33] = Permeability of the compound by PAMPA method; format: ADME; conditions: read-out: permeability

Cc1ccc(C(=O)NCCc2c[nH]c3ccc(N(C)C)cc23)c(O)c1.Cl
half-life [1]: 3.96 h | Activity [2]: Non-Toxic | Activity [3]: Non-Toxic | solubility thermodynamic at 72 h [4]: 2.3 mg/mL | Activity [5]: Non-Toxic | Activity [6]: Non-Toxic | Activity [7]: Non-Toxic | Activity [8]: Non-Toxic

Cc1ccc(C(=O)NCCc2c[nH]c3ccc(N(C)C)cc23)c(O)c1
half-life [1]: 4.56 h | Activity (HT-22 [9]): 5.84% | Activity (HT-22 [10]): 3.67% | concentration at 4 h [11]: 0.02 µg/mL | Activity (HT-22 [12]): 54% | viability at 10 µM (HT-22 [13]): 93.6% | Activity (HT-22 [14]): 2.01% | Activity (HT-22 [15]): 2.34% | Activity (HT-22 [16]): 49.2% | Activity (HT-22 [17]): 0.15% | concentration at 2 h [18]: 0.03 µg/mL | concentration at 0.5 h [19]: 4.12 µg/mL | viability at 5 µM (HT-22 [20]): 93.7% | Activity (HT-22 [21]): 5.95% | concentration at 0.5 h [22]: 0.053 µg/mL | viability at 1 µM (HT-22 [23]): 88% | concentration at 2 h [24]: 0.633 µg/mL | solubility thermodynamic at 72 h [4]: 0.04 mg/mL (≈ 119 µM) | IC50 at 24 h [25]: > 100 µM | Activity (HT-22 [26]): 81.7% | Activity (HT-22 [27]): 0.33% | Activity (HT-22 [28]): 1.06% | viability at 10 µM (HT-22 [29]): 92.7% | Activity (HT-22 [30]): 3.37% | IC50 at 24 h [31]: > 100 µM | concentration at 4 h [32]: 0.186 µg/mL | Papp [33]: 82.9 nm/s
